# Where a name gives a salt, the structure may show the parent alone.
# Test system: KK/H1J mice
# Assay: In vivo assay for glucose lowering (oral glucose tolerance test)
# Details: 4-6 week old fasted KK/H1J mice, oral dosing in 0.5% methylcellulose, glucose at 15 minutes, plasma glucose at 45 minutes
# Description: The glucose lowering effects of the compound of Example 2 were exemplified in 4-6 week old KK/H1J mice (Jackson Labs) in the context of an oral glucose tolerance test.
# The mice were fasted overnight (about 14-18 hours), but allowed free access to water. After fasting, (time “t”=0), 25 μL of blood was drawn from the retro-orbital sinus and added to 0.025% heparinized saline (100 μL) on ice. The mice (10 per group) were then orally dosed with a solution of a compound of formula (1) in 0.5% methylcellulose (0.2 mL/mouse). Two controls groups received only 0.5% methylcellulose. At time=15 minutes, the mice were bled, as described above, and then dosed with […] glucose in distilled water (0.2 mL/mouse). The first control group was dosed with glucose. The second control group was dosed with water. At time=45 minutes, the mice were again bled, as described above. The blood samples were centrifuged, the plasma collected and analyzed for glucose content on a Roche-Hitachi 912 glucose analyzer.
row,Compound,percent (%) inhibition of glucose excursion relative to the two control groups
1,"N[C@H]1CN(c2cc(N3CCC(F)(F)C3)ncn2)C[C@@H]1N1CC(F)(F)CCC1=O [Example 2, 1-((3S,4S)-4-amino-1-(6-(3,3-difluoropyrrolidin-1-yl)pyrimidin-4-yl)pyrrolidin-3-yl)-5,5-difluoropiperidin-2-one]",39.8%

# Target: T1, DPP-IV (Homo sapiens, UniProt P27487)
# T1 construct: purchased Enzyme Systems Products SPE-01
# T1 sequence (P27487 whole entry, species assumed): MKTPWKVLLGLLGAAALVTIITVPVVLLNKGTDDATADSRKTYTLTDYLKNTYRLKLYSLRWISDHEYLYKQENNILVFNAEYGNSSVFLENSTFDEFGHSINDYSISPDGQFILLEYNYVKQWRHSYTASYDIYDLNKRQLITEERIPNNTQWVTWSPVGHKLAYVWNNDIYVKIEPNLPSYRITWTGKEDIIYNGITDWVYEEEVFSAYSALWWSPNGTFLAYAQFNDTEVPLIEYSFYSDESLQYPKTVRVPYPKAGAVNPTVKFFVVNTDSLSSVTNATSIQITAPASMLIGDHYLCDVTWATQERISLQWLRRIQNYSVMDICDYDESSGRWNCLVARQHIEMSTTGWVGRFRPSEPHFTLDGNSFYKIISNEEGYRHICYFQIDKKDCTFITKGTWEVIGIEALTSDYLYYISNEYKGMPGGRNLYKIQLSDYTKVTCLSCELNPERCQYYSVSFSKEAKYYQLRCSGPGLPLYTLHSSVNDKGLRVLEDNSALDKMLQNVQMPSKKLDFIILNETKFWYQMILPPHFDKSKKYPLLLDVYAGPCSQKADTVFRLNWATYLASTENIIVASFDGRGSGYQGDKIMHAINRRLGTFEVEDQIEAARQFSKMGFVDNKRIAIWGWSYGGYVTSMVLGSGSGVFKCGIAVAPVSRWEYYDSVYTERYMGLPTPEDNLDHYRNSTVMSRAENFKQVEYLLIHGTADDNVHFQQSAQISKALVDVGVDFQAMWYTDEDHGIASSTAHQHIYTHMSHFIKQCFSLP
# Assay: In vitro assay for dipeptidyl peptidase inhibition
# Type: biochemical
# Details: Examples 156-162; n-value in brackets; IC50's or percent inhibition at 300 nM; read-out: DPP-IV inhibition
row,IC50,Compound
1,0.317 µM,"N[C@H]1CN(C(=O)c2cc3ccccc3s2)C[C@@H]1N1CCCCC1=O [Example 160, 1-[(3S,4S)-4-Amino-1-(benzo[b]thiophene-2-carbonyl)-pyrrolidin-3-yl]-piperidin-2-onehydrochloride]"

# Same assay, conditions: at 300 nM; n-value given in brackets; read-out: DPP-IV Percent Inhibition at 300 nM
row,inhibition at 0.3 µM,Compound
1,33.5%,"CCS(=O)(=O)c1ccc2c(N3C[C@H](N)[C@@H](N4CCCCC4=O)C3)ncnc2c1 [Example 139, 1-((3S,4S)-4-amino-1-(7-(ethylsulfonyl)quinazolin-4-yl)pyrrolidin-3-yl)piperidin-2-one]"
2,44.5%,"N[C@H]1CN(c2cc(N3CCc4noc(C(F)(F)F)c4C3)ncn2)C[C@@H]1N1CCCCC1=O [Example 81, 1-((3S,4S)-4-amino-1-(6-(3-(trifluoromethyl)-6,7-dihydroisoxazolo[4,3-c]pyridin-5(4H)-yl)pyrimidin-4-yl)pyrrolidin-3-yl)piperidin-2-one trifluoroacetate]"

# Same assay, conditions: n-value given in brackets; read-out: DPP-IV IC50
row,IC50,Compound
1,0.00839 µM,"N[C@H]1CN(c2cc(N3CCC(F)(F)C3)ncn2)C[C@@H]1N1CC(F)(F)CCC1=O [Example 2, 1-((3S,4S)-4-amino-1-(6-(3,3-difluoropyrrolidin-1-yl)pyrimidin-4-yl)pyrrolidin-3-yl)-5,5-difluoropiperidin-2-one]"
2,0.0192 µM,"N[C@H]1CN(c2ncnc(N3Cc4ccccc4C3)n2)C[C@@H]1N1CC(F)(F)CCC1=O [Example 50, 1-{(3S,4S)-4-amino-1-[4-(1,3-dihydro-isoindol-2-yl)-[1,3,5]triazin-2-yl]-pyrrolidin-3-yl}-5,5-difluoro-piperidin-2-one]"
3,0.00199 µM,"CS(=O)(=O)c1ccccc1S(=O)(=O)Oc1ccc2c(N3C[C@H](N)[C@@H](N4CCCCC4=O)C3)ncnc2c1 [Example 96, 4-((3S,4S)-3-amino-4-(2-oxopiperidin-1-Vl)pyrrolidin-1-yl)quinazolin-7-yl 2-(methylsulfonyl)benzenesulfonate]"
4,0.0398 µM,"CCc1nc(N2C[C@H](N)[C@@H](N3CCCCC3=O)C2)cc(N2CCC(F)(F)C2)n1 [Example 15, 1-((3S,4S)-4-amino-1-(6-(3,3-difluoropyrrolidin-1-yl)-2-ethylpyrimidin-4-yl)pyrrolidin-3-yl)piperidin-2-one]"
5,0.132 µM,"N[C@H]1CN(c2ncnc3ccc(Cl)cc23)C[C@@H]1N1CCCCC1=O [Example 104, 1-[(3S,4S)-4-Amino-1-(6-chloro-quinazolin-4-yl)-pyrrolidin-3-yl]-piperidin-2-one hydrochloride]"
6,0.109 µM,"N#Cc1ccccc1OC1CCN(c2ncnc(N3C[C@H](N)[C@@H](N4CCCCC4=O)C3)n2)CC1 [Example 37, 2-(1-(4-((3S,4S)-3-Amino-4-(2-oxopiperidin-1-yl)pyrrolidin-1-yl)-1,3,5-triazin-2-yl)piperidin-4-yloxy)benzonitriletrifluoroacetate]"
7,0.0483 µM,"N[C@H]1CN(c2ncnc(N3Cc4ccccc4C3)n2)C[C@@H]1N1CCCCC1=O [Example 51, 1-{(3S,4S)-4-Amino-1-[4-(1,3-dihydro-isoindol-2-yl)-[1,3,5]triazin-2-yl]-pyrrolidin-3-yl}-piperidin-2-onetrifluoroacetate]"
8,0.0387 µM,"N[C@H]1CN(c2ncnc(-c3ccccc3)n2)C[C@@H]1N1CC(F)(F)CCC1=O [Example 84, 1-((3S,4S)-4-amino-1-(4-phenyl-1,3,5-triazin-2-yl)pyrrolidin-3-yl)-5,5-difluoropiperidin-2-one trifluoroacetate]"
9,0.0749 µM,"CSc1nc(N2C[C@H](N)[C@@H](N3CCCCC3=O)C2)cc(N2CCC(F)(F)C2)n1 [Example 19, 1-((3S,4S)-4-amino-1-(6-(3,3-difluoropyrrolidin-1-yl)-2-(methylthio)pyrimidin-4-yl)pyrrolidin-3-yl)piperidin-2-one]"
10,0.0394 µM,"N[C@H]1CN(c2cc(N3CCc4nocc4C3)nc(C(F)(F)F)n2)C[C@@H]1N1CCCCC1=O [Example 78, 1-((3S,4S)-4-amino-1-(6-(6,7-dihydroisoxazolo[4,3-c]pyridin-5(4H)-yl)-2-(trifluoromethyl)pyrimidin-4-yl)pyrrolidin-3-yl)piperidin-2-one]"
11,0.0255 µM,"N[C@H]1CN(c2cc(N3CCC(F)(F)C3)ncn2)C[C@@H]1N1CCCCC1=O [Example 10, 1-((3S,4S)-4-Amino-1-(6-(3,3-difluoropyrrolidin-1-yl)pyrimidin-4-yl)pyrrolidin-3-yl)piperidin-2-onedihydrochloride]"
12,0.0261 µM,"COc1ccc2c(N3C[C@H](N)[C@@H](N4CCCCC4=O)C3)ncnc2c1 [Example 103, 1-[(3S,4S)-4-Amino-1-(7-methoxy-quinazolin-4-yl)-pyrrolidin-3-yl]-piperidin-2-one hydrochloride]"
13,0.148 µM,"N[C@H]1CN(c2ncnc3cc(OCC(F)(F)F)ccc23)C[C@@H]1N1CCCCC1=O [Example 122, 1-((3S,4S)-4-amino-1-(7-(2,2,2-trifluoroethoxy)quinazolin-4-yl)pyrrolidin-3-yl)piperidin-2-one]"
14,0.102 µM,"COc1ccc2oc(C(=O)N3C[C@H](N)[C@@H](N4CC(F)(F)CCC4=O)C3)cc2c1 [Example 155, 1-((3S,4S)-4-amino-1-(5-methoxybenzofuran-2-carbonyl)pyrrolidin-3-yl)-5,5-difluoropiperidin-2-one]"
15,0.0447 µM,"CC(C)Oc1ccc2c(N3C[C@H](N)[C@@H](N4CC(F)(F)CCC4=O)C3)ncnc2c1 [Example 100, 1-((3S,4S)-4-amino-1-(7-isopropoxyquinazolin-4-yl)pyrrolidin-3-yl)-5,5-difluoropiperidin-2-one]"
16,0.0335 µM,"N[C@H]1CN(c2cc(N3CCc4nocc4C3)nc(C(F)(F)F)n2)C[C@@H]1N1CC(F)(F)CCC1=O [Example 77, 1-{(3S,4S)-4-amino-1-[6-(6,7-dihydro-4H-isoxazolo[4,3-c]pyridin-5-yl)-2-trifluoromethyl-pyrimidin-4-yl]-pyrrolidin-3-yl}-5,5-difluoro-piperidin-2-one]"
17,0.325 µM,"CO[C@@H]1CCN(c2ncnc(N3C[C@H](N)[C@@H](N4CCCCC4=O)C3)n2)C1 [Example 39, 1-((3S,4S)-4-Amino-1-(4-((R)-3-methoxypyrrolidin-1-yl)-1,3,5-triazin-2-yl)pyrrolidin-3-yl)piperidin-2-onetrifluoroacetate]"

row,Compound,IC50
1,"CCC[C@H](C)Oc1cc(N2C[C@H](N)[C@@H](N3CCCCC3=O)C2)ncn1 [Example 90, 1-((3S,4S)-4-Amino-1-(6-((S)-pentan-2-yloxy)pyrimidin-4-yl)pyrrolidin-3-yl)piperidin-2-onetrifluoroacetate]",1.03 µM
2,"N[C@H]1CN(c2ncnc(NC3CCCCC3)n2)C[C@@H]1N1CCCCC1=O [Example 75, 1-[(3S,4S)-4-Amino-1-(4-cyclohexylamino-[1,3,5]triazin-2-yl)-pyrrolidin-3-yl]-piperidin-2-onetrifluoroacetate]",0.169 µM
